Measurements: paper PMC9030691, “Toxicokinetics of β-Amanitin in Mice and In Vitro Drug–Drug Interaction Potential” (Pharmaceutics, 2022)
Like-named read-outs stand apart in the source and are kept apart here.

Experiments:
[1] = Urinary and fecal excretion in mice; format: in vivo, male ICR mice; settings: male mice, LC-HRMS, mean ± SD; for dose excreted: ICR, mouse
Protocol: β-amanitin in water was administered by iv bolus injection into the tail vein at 0.8 mg/kg dose (n = 4) and by oral gavage at 10 mg/kg dose (n = 3) to male mice. Mice were returned to metabolic cages, and urine and feces samples were collected individually at 0–6, 6–12, 12–24, 24–36, and 36–48 h. Urine and feces samples were stored at −80 °C until the analysis.
Each tissue and feces sample was homogenized in water (1:3, w/v). In total, 50 μL aliquots of urine, tissue homogenates, or feces homogenates were mixed with 150 μL of 4′-hydroxydiclofenac solution (IS, 5 ng/mL in methanol). The other steps were as described for plasma sample preparation.

[2] = LC-HRMS, cited from earlier work
Protocol: Concentrations of β-amanitin in biological samples were evaluated following our previous methodology. The standard calibration curves for β-amanitin in mouse plasma ranged from 0.5 to 500 ng/mL and were linear, with a correlation coefficient of 0.9952. The inter- and intra-day accuracy and precision fell within the acceptance criteria (3.1–14.6% of coefficients of variation (CVs) and 92.5–115.0% of accuracy). The extraction recovery and matrix effect of this analytical method were 82.8–88.9% and 93.0–98.6%. Three freeze–thaw cycles (88.7–97.2% accuracy with CVs of 3.6–14.3%), short-term ...

[3] = biological target: T1, CYP1A2 (Homo sapiens, UniProt P05177); experiment: CYP1A2 inhibition in human liver microsomes; format: in vitro ADME; settings: ultrapooled human liver microsomes 0.2 mg/mL, 50 μM phenacetin, β-amanitin 0.1–100 μM, pH 7.4, 37 °C, 15 min, LC-MS/MS, n = 3, read-out: IC50, CYP1A2 phenacetin O-deethylase
T1 construct: from tissue; host or cells: ultrapooled human liver microsomes
T1 sequence (P05177 1-516): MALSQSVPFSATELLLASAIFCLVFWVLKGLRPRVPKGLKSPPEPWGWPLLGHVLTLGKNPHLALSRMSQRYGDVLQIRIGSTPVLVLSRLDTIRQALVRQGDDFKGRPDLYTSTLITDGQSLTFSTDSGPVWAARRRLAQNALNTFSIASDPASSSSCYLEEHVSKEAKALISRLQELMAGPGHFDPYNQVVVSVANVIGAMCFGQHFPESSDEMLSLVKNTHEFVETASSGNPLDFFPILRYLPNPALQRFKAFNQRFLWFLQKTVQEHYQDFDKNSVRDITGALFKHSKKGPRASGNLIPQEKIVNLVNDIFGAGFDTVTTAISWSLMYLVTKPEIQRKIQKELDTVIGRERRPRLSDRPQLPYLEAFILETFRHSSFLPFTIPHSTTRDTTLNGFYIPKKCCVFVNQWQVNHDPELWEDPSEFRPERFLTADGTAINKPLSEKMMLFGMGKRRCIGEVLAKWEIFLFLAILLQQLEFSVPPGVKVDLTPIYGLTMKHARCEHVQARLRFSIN
Protocol: β-amanitin inhibition (IC50 values) of CYP1A2, CYP2A6, CYP2B6, CYP2C8, CYP2C9, CYP2C19, CYP2D6, and CYP3A4 enzyme activities in HLMs were evaluated using LC-MS/MS and CYP substrates as previously described. Each incubation mixture was made up to a volume of 100 μL including HLMs (0.2 mg/mL), 50 mM potassium phosphate buffer (pH 7.4), 1.0 mM NADPH, 10 mM magnesium chloride, various concentrations of β-amanitin (0.1–100 μM), a cocktail of seven CYP probe substrates (50 μM phenacetin for CYP1A2, 2.5 μM coumarin for CYP2A6, 2 μM amodiaquine for CYP2C8, 10 μM diclofenac for CYP2C9, 100 μM [S]-mephenytoin for CYP2C19, 5 μM bufuralol for CYP2D6, and 2.5 μM midazolam for CYP3A4 in acetonitrile), or 50 μM bupropion for CYP2B6. The reactions were initiated with NADPH followed by incubation in a shaking water bath at 37 °C for 15 min with or without 30 min preincubation with NADPH. Reactions were stopped with 50 μL of ice-cold methanol containing ^13C2, ^15N-acetaminophen and d9-1′-hydroxybufuralol (ISs). Incubation mixtures were centrifuged at 13,000× g for 8 min at 4 °C. An aliquot (5 μL) of the supernatant from the reaction mixture was analyzed by the previous LC-MS/MS method.

`CC[C@H](C)[C@@H]1NC(=O)CNC(=O)[C@@H]2Cc3c([nH]c4cc(O)ccc34)[S@+]([O-])C[C@H](NC(=O)CNC1=O)C(=O)N[C@@H](CC(=O)O)C(=O)N1C[C@H](O)C[C@H]1C(=O)N[C@@H]([C@@H](C)[C@@H](O)CO)C(=O)N2` [β-amanitin] showed a dose excreted ([1]; iv bolus 0.8 mg/kg, metabolic cages, urine 0–48 h, n = 4, read-out: Total urinary recovery (parent form) after 48 h) of 52.3 ± 19.8%, a dose excreted ([1]; oral gavage 10 mg/kg, feces 0–48 h, n = 3, read-out: Cumulative fecal excretion for 48 h) of 72.4 ± 24.7% and a dose excreted ([1]; oral gavage 10 mg/kg, urine 0–48 h, n = 3, read-out: Cumulative urinary excretion for 48 h) of 2.4 ± 1.2%. For the same compound, the “Total fecal recovery over 48 h” value ([1]; iv bolus 0.8 mg/kg, feces 0–48 h, n = 4) was 7.6% ± 1.2, the “Urinary recovery within 6 h” value ([1]; iv bolus 0.8 mg/kg, urine 0–6 h, n = 4) was 40.9% ± 27.6 and the “Stability, short-term storage for 2 h on ice (accuracy)” value ([2]; mouse plasma, CVs of 3.6–7.4%) was 94.7–97.9%. The “Stability, three freeze–thaw cycles (accuracy)” value ([2]; mouse plasma, CVs of 3.6–14.3%) was 88.7–97.2%, the “Stability, long-term storage for 2 weeks at −80 °C (accuracy)” value ([2]; mouse plasma, CVs of 3.7–9.1%) was 90.4–105.0% and the “Post-preparation stability for 24 h in 4 °C autosampler (accuracy)” value ([2]; processed mouse plasma samples, CVs of 6.8–7.5%) was 90.7–94.1%. The IC50 ([3]; with 30 min NADPH preincubation) was > 100 µM and the IC50 ([3]; without NADPH preincubation) was > 100 µM.
